Assay results published in PubChem BioAssay AID1963858 (Molecular Pharmacology Branch, DTP, NCI, 2024).

Test system: HOP-62 multicell spheroids with HUVEC/MSC, viability
Assay: Anticancer human tumor HOP-62 cell line growth inhibition [KRAS2];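 further: viability read after a week of compound exposure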;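 on viability, T/C: 100% = DMSO vehicle-treated spheroids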
Conditions: for IC50: curve of first compound; for viability, T/C: stronger effect = lower value
Method in brief: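 Combination screen of spheroid viability in tumor-cell co-cultures with endothelial (HUVEC) and mesenchymal stem cell stroma. Each agent was tested in half-log dilutions, topping at clinical Cmax or at 10 microM without a known Cmax.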

[1] = second compound 0.1 µM, first compound 0.0316 µM
[2] = second compound 0.1 µM, first compound 0.1 µM
[3] = second compound 0.1 µM, first compound 0.316 µM
[4] = second compound 0.1 µM, first compound 1 µM
[5] = second compound 0.1 µM, first compound 3.16 µM
[6] = second compound 0.1 µM, first compound 10 µM
[7] = second compound 0.316 µM, first compound 0.0316 µM
[8] = second compound 0.316 µM, first compound 0.1 µM
[9] = second compound 0.316 µM, first compound 0.316 µM
[10] = second compound 0.316 µM, first compound 1 µM
[11] = second compound 0.316 µM, first compound 3.16 µM
[12] = second compound 0.316 µM, first compound 10 µM
[13] = second compound 1 µM, first compound 0.0316 µM
[14] = second compound 1 µM, first compound 0.1 µM
[15] = second compound 1 µM, first compound 0.316 µM
[16] = second compound 1 µM, first compound 1 µM
[17] = second compound 1 µM, first compound 3.16 µM
[18] = second compound 1 µM, first compound 10 µM
[19] = second compound 3.16 µM, first compound 0.0316 µM
[20] = second compound 3.16 µM, first compound 0.1 µM
[21] = second compound 3.16 µM, first compound 0.316 µM
[22] = second compound 3.16 µM, first compound 1 µM
[23] = second compound 3.16 µM, first compound 3.16 µM
[24] = second compound 3.16 µM, first compound 10 µM
[25] = second compound 10 µM, first compound 0.0316 µM
[26] = second compound 10 µM, first compound 0.1 µM
[27] = second compound 10 µM, first compound 0.316 µM
[28] = second compound 10 µM, first compound 1 µM
[29] = second compound 10 µM, first compound 3.16 µM
[30] = second compound 10 µM, first compound 10 µM
[31] = second compound 0.1 µM, first compound 0.000316 µM
[32] = second compound 0.1 µM, first compound 0.001 µM
[33] = second compound 0.1 µM, first compound 0.00316 µM
[34] = second compound 0.1 µM, first compound 0.01 µM
[35] = second compound 0.316 µM, first compound 0.000316 µM
[36] = second compound 0.316 µM, first compound 0.001 µM
[37] = second compound 0.316 µM, first compound 0.00316 µM
[38] = second compound 0.316 µM, first compound 0.01 µM
[39] = second compound 1 µM, first compound 0.000316 µM
[40] = second compound 1 µM, first compound 0.001 µM
[41] = second compound 1 µM, first compound 0.00316 µM
[42] = second compound 1 µM, first compound 0.01 µM
[43] = second compound 3.16 µM, first compound 0.000316 µM
[44] = second compound 3.16 µM, first compound 0.001 µM
[45] = second compound 3.16 µM, first compound 0.00316 µM
[46] = second compound 3.16 µM, first compound 0.01 µM
[47] = second compound 10 µM, first compound 0.000316 µM
[48] = second compound 10 µM, first compound 0.001 µM
[49] = second compound 10 µM, first compound 0.00316 µM
[50] = second compound 10 µM, first compound 0.01 µM

| SMILES | IC50 (second compound 0.1 µM) [nM] | IC50 (second compound 0.316 µM) [nM] | IC50 (second compound 1 µM) [nM] | IC50 (second compound 3.16 µM) [nM] | IC50 (second compound 10 µM) [nM] | viability, T/C [1] [%] | viability, T/C [2] [%] | viability, T/C [3] [%] | viability, T/C [4] [%] | viability, T/C [7] [%] | viability, T/C [8] [%] | viability, T/C [9] [%] | viability, T/C [10] [%] | viability, T/C [13] [%] | viability, T/C [14] [%] | viability, T/C [15] [%] | viability, T/C [19] [%] | viability, T/C [20] [%] | viability, T/C [25] [%] | viability, T/C [26] [%] | also measured |
| --- | --- | --- | --- | --- | --- | --- | --- | --- | --- | --- | --- | --- | --- | --- | --- | --- | --- | --- | --- | --- | --- |
| CC(C)NCC(C(=O)N1CCN(c2ncnc3c2C(C)CC3O)CC1)c1ccc(Cl)cc1 (stereo not given) + COc1cc2nc(C)nc(NC(C)c3cc(N)cc(C(F)(F)F)c3)c2cc1OC1CCOC1 | 649 | 412 | 222 | 416 | < 31.6 | 101 | 85.5 | 73 | 38.3 | 92.5 | 85.4 | 58.7 | 21.6 | 91 | 67.8 | 42.8 | 63.1 | 59.1 | 49.1 | 33.8 | viability, T/C [5]: 9.92%; viability, T/C [6]: 6.97%; viability, T/C [11]: 7.46%; viability, T/C [12]: 6.79%; viability, T/C [16]: 20%; viability, T/C [17]: 5.76%; viability, T/C [18]: 3.7%; viability, T/C [21]: 64%; viability, T/C [22]: 11.2%; viability, T/C [23]: 6.02%; viability, T/C [24]: 5.53%; viability, T/C [27]: 23.7%; viability, T/C [28]: 10.7%; viability, T/C [29]: 8.2%; viability, T/C [30]: 5.6% |
| CC(C)n1nc(-c2ccc3oc(N)nc3c2)c2c(N)ncnc21 + COc1cc2nc(C)nc(NC(C)c3cc(N)cc(C(F)(F)F)c3)c2cc1OC1CCOC1 | 3.27 | 2.34 | 1.8 | < 0.316 | < 0.316 | 18.1 | 15.5 | – | – | 21.4 | 13.8 | – | – | 16.5 | 11.3 | – | 11.8 | 8.61 | 10.9 | 8.71 | viability, T/C [31]: 103%; viability, T/C [32]: 77%; viability, T/C [33]: 50.4%; viability, T/C [34]: 32.2%; viability, T/C [35]: 82.5%; viability, T/C [36]: 64.2%; viability, T/C [37]: 46%; viability, T/C [38]: 26.9%; viability, T/C [39]: 86.7%; viability, T/C [40]: 67.1%; viability, T/C [41]: 32%; viability, T/C [42]: 23.9%; viability, T/C [43]: 47.8%; viability, T/C [44]: 42.4%; viability, T/C [45]: 25.2%; viability, T/C [46]: 17.3%; viability, T/C [47]: 37.7%; viability, T/C [48]: 30.7%; viability, T/C [49]: 20.9%; viability, T/C [50]: 14.8% |
| CC1(C)CCC(CN2CCN(c3ccc(C(=O)NS(=O)(=O)c4ccc(NCC5CCOCC5)c([N+](=O)[O-])c4)c(Oc4cnc5[nH]ccc5c4)c3)CC2)=C(c2ccc(Cl)cc2)C1 + COc1cc2nc(C)nc(NC(C)c3cc(N)cc(C(F)(F)F)c3)c2cc1OC1CCOC1 | 4240 | 4580 | 3430 | 1660 | 370 | 84.1 | 92.3 | 79.6 | 82.6 | 87.5 | 88.7 | 78.2 | 75.3 | 85.1 | 88 | 78.9 | 78 | 75.6 | 55.6 | 56 | viability, T/C [5]: 58%; viability, T/C [6]: 26%; viability, T/C [11]: 65%; viability, T/C [12]: 23.2%; viability, T/C [16]: 64.6%; viability, T/C [17]: 57.8%; viability, T/C [18]: 14.5%; viability, T/C [21]: 62.8%; viability, T/C [22]: 62.2%; viability, T/C [23]: 38.5%; viability, T/C [24]: 26%; viability, T/C [27]: 52.8%; viability, T/C [28]: 39.5%; viability, T/C [29]: 24%; viability, T/C [30]: 7.27% |
| CCN1CCN(Cc2ccc(Nc3ncc(F)c(-c4cc(F)c5nc(C)n(C(C)C)c5c4)n3)nc2)CC1 + COc1cc2nc(C)nc(NC(C)c3cc(N)cc(C(F)(F)F)c3)c2cc1OC1CCOC1 | 911 | 979 | 613 | 23.2 | < 3.16 | 84.2 | 79.4 | 73.8 | 45.6 | 85.6 | 69.9 | 63.2 | 49.2 | 67.6 | 69.9 | 49.6 | 50.6 | 41.8 | 24.4 | 21.9 | viability, T/C [33]: 102%; viability, T/C [34]: 97%; viability, T/C [37]: 101%; viability, T/C [38]: 93.5%; viability, T/C [41]: 80.8%; viability, T/C [42]: 74.4%; viability, T/C [16]: 47.8%; viability, T/C [45]: 55.5%; viability, T/C [46]: 52.9%; viability, T/C [21]: 42.4%; viability, T/C [22]: 34.8%; viability, T/C [49]: 49.9%; viability, T/C [50]: 32.2%; viability, T/C [27]: 18.5%; viability, T/C [28]: 0.89% |
| CCNC(=O)CC1N=C(c2ccc(Cl)cc2)c2cc(OC)ccc2-n2c(C)nnc21 (stereo not given) + COc1cc2nc(C)nc(NC(C)c3cc(N)cc(C(F)(F)F)c3)c2cc1OC1CCOC1 | 271 | 189 | 193 | 60.8 | < 31.6 | 90.5 | 75.9 | 44.3 | 29.4 | 90.4 | 65 | 37.8 | 23.7 | 89.2 | 59.8 | 46.9 | 60.1 | 41.7 | 43 | 35.9 | viability, T/C [5]: 21.9%; viability, T/C [6]: 18.2%; viability, T/C [11]: 19%; viability, T/C [12]: 18.5%; viability, T/C [16]: 17.5%; viability, T/C [17]: 16.9%; viability, T/C [18]: 14.4%; viability, T/C [21]: 29.1%; viability, T/C [22]: 17.2%; viability, T/C [23]: 15.5%; viability, T/C [24]: 15.2%; viability, T/C [27]: 29.3%; viability, T/C [28]: 15.8%; viability, T/C [29]: 9.2%; viability, T/C [30]: 4.11% |
| Cn1ncnc1[C@H]1c2n[nH]c(=O)c3cc(F)cc(c23)N[C@@H]1c1ccc(F)cc1 + COc1cc2nc(C)nc(NC(C)c3cc(N)cc(C(F)(F)F)c3)c2cc1OC1CCOC1 | > 100 | > 100 | > 100 | 74.2 | 2.96 | 97.6 | 70.4 | – | – | 83.5 | 78.8 | – | – | 66 | 57.1 | – | 48.5 | 51 | 42.8 | 41.6 | viability, T/C [31]: 95.1%; viability, T/C [32]: 102%; viability, T/C [33]: 94.3%; viability, T/C [34]: 87%; viability, T/C [35]: 104%; viability, T/C [36]: 91.7%; viability, T/C [37]: 86.8%; viability, T/C [38]: 94.2%; viability, T/C [39]: 96%; viability, T/C [40]: 89.5%; viability, T/C [41]: 69.9%; viability, T/C [42]: 66.6%; viability, T/C [43]: 75.7%; viability, T/C [44]: 85.6%; viability, T/C [45]: 72.8%; viability, T/C [46]: 58.1%; viability, T/C [47]: 58.6%; viability, T/C [48]: 59%; viability, T/C [49]: 50.8%; viability, T/C [50]: 40.8% |
